Assays:
HEL cells = assay: HEL cell growth inhibition by fresh or aged drug stocks (stability); type: cell-based, human; conditions: stocks stored two to three years at −20° Celsius; 2.5, 5, 10, 20 μM, 24 hours
Method: Fresh or aged stocks of compounds 1 and 2 were tested for the ability to inhibit HEL cell growth at 2.5, 5, 10, and 20 μM of each drug after 24 hours (FIG. 19A-FIG. 19B).
The CellTiter Glo® assay was performed using HEL cells seeded at 1000 cells/well of a 96-well plate. The “fresh” drug stocks were obtained frozen (stored at −20° Celsius) within days of executing the proliferation experiment for which results are shown. The “aged” drug stocks were obtained from freeze-thawed stocks serially diluted and stored at −20° Celsius in the laboratory. The “aged” stocks were stored between at least two years to three years at −20° Celsius with little to no freeze-thaw cycles prior to execution of the proliferation experiment for which results are shown. “Aged” stocks may be stored for several years (e.g., at least one year, at least two years, at least three years, at least four years or more) at −20° Celsius prior to use.

[1] = tested on: JAK2-V617F-positive primary AML patient samples; assay: AML liquid culture proliferation, primary patient samples; type: cell-based, human
Description: AML liquid culture proliferation and colony assay studies. Frozen vials of bone marrow from AML patients identified as harboring JAK2-V617F were previously Ficoll®-purified to obtain mononuclear cells and thawed prior to use in studies.

MCL-1 = MCL-1 (Homo sapiens (Human), UniProt Q07820); assay: MCL-1 expression in HEL cells by western blotting; type: cell-based; conditions: 10-20 μM
Method: (§1) With JOSD1 as the prime candidate, JOSD1 binding and inhibition was evaluated by the compounds. First, targeted engagement was confirmed by showing competition with DUB ABP in HEL-FLAG-HA-JOSD1 cells following treatment with the two agents (FIG. 4D). The structures for negative control compounds 66 and 67 are shown below. In addition, the effects of small molecule inhibition of JOSD1 was investigated on MCL-1, an established substrate of JOSD1 (Wu, et al., 2020 Cell Death Differ., 27(1):55-70). […] Other exemplary compounds that inhibit DUBs are listed below in Table 3 (See Supra, ¶ [0063] for structures)

wt JAK2 = wt JAK2 (Mus musculus (Mouse), UniProt Q62120); assay: JAK2 protein level by western blotting in Ba/F3-EPOR-JAK2 wt cells; type: cell-based
Method: (§2) Immunoblotting and Immunoprecipitation. Protein lysate preparation, immunoblotting, and immunoprecipitation were carried out as previously described (Lamberto, et al., 2017 Cell Chem Biol., 224(12):1490-500 e11). Briefly, 0.7×10^6 cells were treated with compounds 1 and 2 at 0, 5, 10, and 20 μM for 16 or 24 hours, cells were collected, and lysate was prepared in radioimmunoprecipitation assay (RIPA) buffer, JAK family and downstream signaling protein levels were detected by western blotting with the indicated antibodies. For immunoprecipitation, 1 mg protein for each sample was prepared and 1 μg antibody was used, immunoglobulin G (IgG) was added in same amount as nontargeting control.

normal bone marrow cells = assay: Normal bone marrow colony assay; type: cell-based, human
Method: Normal human bone marrow was also analyzed in a colony assay: 24-well plates seeded with 200 cells/well in MethoCult™ H4434 Classic (methylcellulose-based medium with recombinant cytokines for human cells) ([…] Technologies™ INC., Vancouver, British Columbia, Canada). The plates contained targeted JOSD1 inhibitors at the indicated concentrations. Plates were incubated at 37° C. in 5% CO2 for >1 week, and then myeloid and erythroid colonies (early progenitors with erythroid and myeloid components: colony-forming unit for granulocytes and macrophages (CFU-GM), CFU-erythroid (E), BFU-E, and CFU-granulocyte, erythroid, macrophage, megakaryocyte (GEMM) were counted on an inverted microscope.

UCHL1 = UCHL1 (Homo sapiens (Human), UniProt P09936); assay: UCHL1 biochemical inhibition (ubiquitin hydrolase activity, purified enzyme)
USP30 = USP30 (Homo sapiens (Human), UniProt Q70CQ3); assay: USP30 biochemical IC50
[2] = tested on: Ba/F3-EPOR-JAK2-V617F-expressing cells; assay: Ba/F3 cell proliferation (CellTiter Glo); type: cell-based, murine
Method: Proliferation and Drug Combination Studies. Proliferation and drug combination studies were carried out as previously described (Yang, et al., 2020, British Journal of Cancer, 122:1175-84).
As toxicities can result from small molecule targeting of both oncogenic mutated JAK2 as well as its non-mutated counterpart, a chemical genetics screen was designed and performed of a DUB-focused small molecule inhibitor library with the goal of leveraging crosstalk between phosphorylation and ubiquitination to identify DUB inhibitors able to selectively degrade mutant JAK2 while sparing wt JAK2. Of relevance, activated FLT3 can be selectively degraded over the wt enzyme by inhibition of the DUB, USP10, (Wernig, et al., 2008, Blood, 111(7):3751-9) and similar to FLT3, JAK2 is ubiquitinated in an activation-dependent manner. In brief, the library of known and novel DUB inhibitors was evaluated for ability to suppress growth of Ba/F3-EPOR-JAK2-V617F-expressing cells selectively over Ba/F3-EPOR cells growing in the presence of interleukin-3.
A broader range of compounds 1 and 2, including concentrations lower than 1 μM, were also tested on growth of EPOR-JAK2-V617F-expressing Ba/F3 cells and parental Ba/F3 EpoR+ cells (24 hours treatment on 4000 cells per well) (FIG. 18-FIG. 18B). Cell growth inhibition (FIG. 17A-FIG. 17B, FIG. 18A-FIG. 18B) was tested on Ba/F3-EPOR-JAK2-V617F (-IL-3/WEHI) and parental Ba/F3-EPOR cells (+IL-3/WEHI) plated at 2000 cells per well, at 1, 3 and 10 μM for 24 hours using the Promega CellTiter Glo® assay.

SOCS1 = SOCS1 (Homo sapiens (Human), UniProt O15524); assay: SOCS1 expression in HEL cells by western blotting; type: cell-based; conditions: 5 μM
Method: as §1

JAK2-V617F = JAK2-V617F (Homo sapiens (Human), UniProt O60674, V617F); assay: JAK2-V617F protein loss in human AML cell lines by western blotting; type: cell-based; conditions: HEL cells, co-treatment with cycloheximide
Method: as §2

Chain of USP30 (Q70CQ3 whole entry, species assumed): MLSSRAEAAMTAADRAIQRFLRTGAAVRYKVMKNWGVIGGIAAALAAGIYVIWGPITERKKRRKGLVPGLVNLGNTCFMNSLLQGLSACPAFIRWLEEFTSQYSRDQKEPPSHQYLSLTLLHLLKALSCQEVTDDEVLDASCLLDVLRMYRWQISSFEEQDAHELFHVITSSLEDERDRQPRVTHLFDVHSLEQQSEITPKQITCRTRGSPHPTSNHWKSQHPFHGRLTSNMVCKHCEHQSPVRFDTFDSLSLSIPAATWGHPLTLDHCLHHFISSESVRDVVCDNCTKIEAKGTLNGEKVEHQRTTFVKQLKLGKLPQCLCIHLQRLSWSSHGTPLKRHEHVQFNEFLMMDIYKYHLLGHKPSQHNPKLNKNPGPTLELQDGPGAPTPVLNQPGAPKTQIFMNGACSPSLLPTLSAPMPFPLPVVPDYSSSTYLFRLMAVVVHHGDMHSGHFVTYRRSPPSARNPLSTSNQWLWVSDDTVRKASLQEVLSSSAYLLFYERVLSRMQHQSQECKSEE
Chain of UCHL1 (P09936 whole entry, species assumed): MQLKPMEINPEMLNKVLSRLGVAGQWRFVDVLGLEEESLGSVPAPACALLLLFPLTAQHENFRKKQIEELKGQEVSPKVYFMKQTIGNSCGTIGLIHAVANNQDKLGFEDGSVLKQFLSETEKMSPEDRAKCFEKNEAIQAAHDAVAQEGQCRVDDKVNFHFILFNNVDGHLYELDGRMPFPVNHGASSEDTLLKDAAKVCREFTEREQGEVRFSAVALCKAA

MCL-1 expression (MCL-1): decrease
JAK2 levels in wt cells (wt JAK2): little to no impact on JAK2 levels
normal bone marrow colony formation (normal bone marrow cells; 5 μM or higher): significantly impaired
normal bone marrow colony formation (normal bone marrow cells; concentrations up to 2.5 μM): colonies were able to form
UCHL1 biochemical IC50 (range in words) (UCHL1): several hundred
USP30 biochemical IC50 (range in words) (USP30): several hundred
SOCS1 expression (SOCS1): decrease
JAK2-V617F protein half-life (JAK2-V617F): shorten JAK2-V617F protein half-life
Compound: Cc1noc(C)c1-c1cccc2nc(NC(=O)[C@H]3CCN(C#N)C3)sc12 [Compound 2, (S)-1-cyano-N-(7-(3,5-dimethylisoxazol-4-yl)benzo[d]thiazol-2-yl)pyrrolidine-3-carboxamide]
stability: growth inhibition by aged stocks versus fresh stocks (HEL cells): comparable cell growth inhibition
potency against JAK2-V617F-positive cells versus normal bone marrow cells ([1]; compound 2: 24 h treatment, ruxolitinib: FIG. 16C): higher potency exhibited against JAK2-V617F-positive cells than normal bone marrow cells
primary cell viability ([1]; starting at concentrations around 1 μM): concentration-dependent decrease in primary cell viability
killing of Ba/F3-EPOR-JAK2-V617F cells compared to wt JAK2-expressing parental Ba/F3 cells [2]: selective killing
cell growth inhibition ([2]; 1, 3 and 10 μM, 24 hours, independent experiments): inhibit growth
